From patent US20130123254A1, “PHARMACEUTICALLY ACCEPTABLE MGLUR5 POSITIVE ALLOSTERIC MODULATORS AND THEIR METHODS OF IDENTIFICATION” (priority 2011, published 2013)

Assays:
Body temperature test = assay type: in vivo; settings: rat, body temperature at 2 h, read-out: BT test MED (rat)
Procedure: Principle: Evaluation of the effect of a compound on core body temperature at a 2-h interval in the rat.
The temperature decrease in rats upon administration of mGluR5 negative allosteric modulators (antagonists) is well documented Warty & al.; Psychopharmacology (2005) 179: 207-217 (DOI 10.1007/s00213-005-2143-4)).
Male Sprague Dawley Rats (OFA-SD, Charles River, ˜250 g) are weighed and isolated for at least 30 min before compound injection in type II Makrolon cages. Before injection of the mGlu5 PAM compound, rectal body temperature is measured with a thermometer with a special rat probe for ˜20 s. The probe is dipped in glycerin before each use. Immediately after compound administration, rats are placed back in the type 2 cage. After 2 hours, the body temperature of each rat is measured again. The difference in absolute body temperature as well as the temperature difference delta T2-T0 between vehicle and compound injected rats is analysed.

human mGlu5a receptor [1] = molecular target: T1, human mGlu5a receptor (Homo sapiens, UniProt P41594); assay: Shift factor in Ca2+ mobilization assay (human); assay type: cell-based; settings: shift factor = EC50(glutamate)/EC50(glutamate + test compound)
T1 construct: expressed in transfected cells
T1 sequence (P41594 21-1180 isoform P41594-2 limits assumed): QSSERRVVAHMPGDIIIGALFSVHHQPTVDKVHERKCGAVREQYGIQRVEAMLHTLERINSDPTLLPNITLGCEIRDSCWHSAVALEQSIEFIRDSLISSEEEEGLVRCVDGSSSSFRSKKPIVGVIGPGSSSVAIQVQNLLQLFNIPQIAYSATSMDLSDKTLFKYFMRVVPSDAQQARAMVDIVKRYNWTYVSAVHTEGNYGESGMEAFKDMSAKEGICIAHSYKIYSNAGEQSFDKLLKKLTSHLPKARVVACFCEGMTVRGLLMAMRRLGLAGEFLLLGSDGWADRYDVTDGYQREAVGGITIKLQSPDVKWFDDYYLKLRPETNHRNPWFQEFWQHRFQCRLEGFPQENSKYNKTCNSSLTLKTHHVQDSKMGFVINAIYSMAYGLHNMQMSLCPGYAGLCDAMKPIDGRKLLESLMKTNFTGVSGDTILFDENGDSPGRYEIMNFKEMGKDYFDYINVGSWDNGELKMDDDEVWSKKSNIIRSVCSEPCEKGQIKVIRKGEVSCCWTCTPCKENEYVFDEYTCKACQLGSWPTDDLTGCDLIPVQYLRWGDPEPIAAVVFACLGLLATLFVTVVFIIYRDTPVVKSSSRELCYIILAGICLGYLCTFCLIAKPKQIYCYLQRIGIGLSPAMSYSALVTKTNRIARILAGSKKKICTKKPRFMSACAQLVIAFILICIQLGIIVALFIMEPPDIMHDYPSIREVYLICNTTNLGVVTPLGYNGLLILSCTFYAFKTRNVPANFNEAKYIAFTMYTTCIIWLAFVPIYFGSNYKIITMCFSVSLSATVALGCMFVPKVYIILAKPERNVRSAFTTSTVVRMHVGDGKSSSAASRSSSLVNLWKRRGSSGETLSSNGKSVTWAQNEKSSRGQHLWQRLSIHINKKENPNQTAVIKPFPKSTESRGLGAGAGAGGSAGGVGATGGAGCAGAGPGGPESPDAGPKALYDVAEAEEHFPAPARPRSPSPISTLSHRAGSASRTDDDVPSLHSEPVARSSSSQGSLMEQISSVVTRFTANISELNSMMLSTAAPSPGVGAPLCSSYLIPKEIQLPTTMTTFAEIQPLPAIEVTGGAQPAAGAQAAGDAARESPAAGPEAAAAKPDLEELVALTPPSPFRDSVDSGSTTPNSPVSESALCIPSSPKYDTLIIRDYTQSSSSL
Procedure: A monoclonal HEK-293 cell line stably transfected with a cDNA encoding for the human mGlu5a receptor was generated; for the work with mGlu5 Positive Allosteric Modulators (PAMs), a cell line with low receptor expression levels and low constitutive receptor activity was selected to allow the differentiation of agonistic versus PAM activity. Cells were cultured according to standard protocols (Freshney, 2000) in Dulbecco's Modified Eagle Medium with high glucose supplemented with 1 mM glutamine, 10% (vol/vol) heat-inactivated bovine calf serum, Penicillin/Streptomycin, 50 μg/ml hygromycin and 15 μg/ml blasticidin (all cell culture reagents and antibiotics from Invitrogen, Basel, Switzerland).
About 24 hrs before an experiment, 5×10^4 cells/well were seeded in poly-D-lysine coated, black/clear-bottomed 96-well plates. The cells were loaded with 2.5 μM Fluo-4AM in loading buffer (1×HBSS, 20 mM HEPES) for 1 hr at 37° C. and washed five times with loading buffer. The cells were transferred into a Functional Drug Screening System 7000 (Hamamatsu, Paris, France), and 11 half logarithmic serial dilutions of test compound at 37° C. were added and the cells were incubated for 10-30 min. with on-line recording of fluorescence. Following this pre-incubation step, the agonist L-glutamate was added to the cells at a concentration corresponding to EC20 (typically around 80 μM) with on-line recording of fluorescence; in order to account for day-to-day variations in the responsiveness of cells, the EC20 of glutamate was determined immediately ahead of each experiment by recording of a full dose-response curve of glutamate.
(§1) The shift factor is calculated for a specific concentration of the test compound according to the equation: Shift factor=EC50(glutamate)/EC50(glutamate+×uM test compound).
(§2) On the same 96-well plate a serial dilution of glutamate is added to a) cells previously incubated for 10-30 min. with a fixed concentration of an mGlu5 PAM test compound and b) cells not incubated with mGlu5 PAM test compound. The peak fluorescence signals obtained from cells with or without pre-incubation with mGlu5 PAM test compound is plotted as illustrated, and the two EC50 values are derived from the plot. The shift factor is specific for the concentration of the test compound used and calculated as follows: Shift factor=ECM50(glutamate)/EC50(glutamate+×μM test compound).

mGlu5 receptor = molecular target: T2, mGlu5 receptor (Rattus norvegicus, UniProt P31424); assay: Shift factor in Ca2+ mobilization assay (rat); assay type: cell-based
T2 construct: expressed in transfected cells
T2 sequence (P31424 21-1203): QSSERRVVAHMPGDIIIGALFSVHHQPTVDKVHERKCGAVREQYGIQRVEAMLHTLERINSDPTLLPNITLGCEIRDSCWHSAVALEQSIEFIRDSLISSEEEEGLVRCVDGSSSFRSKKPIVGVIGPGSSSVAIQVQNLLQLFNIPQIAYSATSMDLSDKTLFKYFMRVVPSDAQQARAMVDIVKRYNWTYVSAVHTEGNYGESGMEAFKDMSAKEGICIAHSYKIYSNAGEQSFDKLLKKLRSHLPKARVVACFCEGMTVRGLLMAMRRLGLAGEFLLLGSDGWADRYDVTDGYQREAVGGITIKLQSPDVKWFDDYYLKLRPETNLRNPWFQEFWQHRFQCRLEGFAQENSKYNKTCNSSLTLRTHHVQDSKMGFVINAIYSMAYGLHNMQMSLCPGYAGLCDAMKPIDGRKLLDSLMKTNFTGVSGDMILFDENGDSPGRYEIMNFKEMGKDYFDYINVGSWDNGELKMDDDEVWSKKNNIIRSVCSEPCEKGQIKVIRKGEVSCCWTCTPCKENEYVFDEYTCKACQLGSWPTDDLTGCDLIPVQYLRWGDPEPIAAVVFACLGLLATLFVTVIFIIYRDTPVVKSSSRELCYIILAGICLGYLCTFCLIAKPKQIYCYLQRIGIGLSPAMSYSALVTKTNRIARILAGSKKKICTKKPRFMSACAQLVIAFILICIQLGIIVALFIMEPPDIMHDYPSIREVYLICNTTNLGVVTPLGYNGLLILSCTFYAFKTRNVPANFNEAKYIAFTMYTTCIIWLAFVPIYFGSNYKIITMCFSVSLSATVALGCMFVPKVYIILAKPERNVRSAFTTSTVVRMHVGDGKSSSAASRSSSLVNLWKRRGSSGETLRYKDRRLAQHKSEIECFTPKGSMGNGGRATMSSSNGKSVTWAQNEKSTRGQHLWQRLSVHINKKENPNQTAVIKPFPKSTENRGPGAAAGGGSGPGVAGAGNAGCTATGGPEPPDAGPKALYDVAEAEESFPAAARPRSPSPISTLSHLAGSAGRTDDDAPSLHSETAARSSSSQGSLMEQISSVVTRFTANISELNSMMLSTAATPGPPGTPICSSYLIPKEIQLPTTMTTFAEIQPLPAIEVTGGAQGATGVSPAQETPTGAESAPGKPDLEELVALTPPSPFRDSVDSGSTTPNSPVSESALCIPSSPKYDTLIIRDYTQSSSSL
Procedure: as §1, §2

[2] = HTD/LTD dose, tolerability in rat; settings: for HTD/LTD Dose (rat) (observation): observation at the HTD/LTD dose
human mGlu5a receptor [3] = molecular target: T1, human mGlu5a receptor; assay: Intracellular Ca2+ mobilization assay, PAM EC50 and efficacy at EC20 of L-glutamate; assay type: cell-based; settings: maximal response relative to saturating L-glutamate, FIGS. 4 and 5

CN1C(=O)N(c2ncc(C#Cc3ccc(F)cc3)cn2)CC1(C)C [Example 7]
minimal effective dose (Body temperature test): 0.3 mg/kg
Shift (hum, 10 uM) (human mGlu5a receptor [1]): 2.44
Shift (rat, 10 uM) (mGlu5 receptor): 1.80
HTD/LTD Dose (rat) [2]: 100 mg/kg
HTD/LTD Dose (rat) (observation) [2]: well tolerated

CN(C(=O)c1ccc(C#Cc2cc(F)ccc2F)cn1)C(C)(C)C [Example 12]
minimal effective dose (Body temperature test): 0.1 mg/kg
Shift (hum, 10 uM) (human mGlu5a receptor [1]): 1.86
Shift (rat, 10 uM) (mGlu5 receptor): 1.62
HTD/LTD Dose (rat) [2]: 100 mg/kg
HTD/LTD Dose (rat) (observation) [2]: well tolerated

CN(C(=O)c1ncc(C#Cc2cccc(F)c2)cn1)C(C)(C)C [Example 11]
minimal effective dose (Body temperature test): 0.1 mg/kg
Shift (hum, 10 uM) (human mGlu5a receptor [1]): 2.06
Shift (rat, 10 uM) (mGlu5 receptor): 1.86
HTD/LTD Dose (rat) [2]: 100 mg/kg
HTD/LTD Dose (rat) (observation) [2]: well tolerated

CN1C(C)(C)CN(c2ccc(C#Cc3ccccc3)cn2)S1(=O)=O [Example 5]
minimal effective dose (Body temperature test): 0.3 mg/kg
Shift (hum, 10 uM) (human mGlu5a receptor [1]): 2.02
Shift (rat, 10 uM) (mGlu5 receptor): 1.66
HTD/LTD Dose (rat) [2]: 100 mg/kg
HTD/LTD Dose (rat) (observation) [2]: well tolerated

CN1C(=O)N(c2ccc(C#Cc3cncc(Cl)c3)cn2)CC1(C)C [Example 8]
minimal effective dose (Body temperature test): 1 mg/kg
Shift (hum, 10 uM) (human mGlu5a receptor [1]): 3.60
Shift (rat, 10 uM) (mGlu5 receptor): 2.28
HTD/LTD Dose (rat) [2]: 100 mg/kg
HTD/LTD Dose (rat) (observation) [2]: well tolerated

CN1C(=O)N(c2ccc(C#Cc3ccccc3)cn2)[C@@H]2CCC[C@@H]21 [Example 2]
minimal effective dose (Body temperature test): 0.1 mg/kg
Shift (hum, 10 uM) (human mGlu5a receptor [1]): 1.02
Shift (rat, 10 uM) (mGlu5 receptor): 0.88
HTD/LTD Dose (rat) [2]: 100 mg/kg
HTD/LTD Dose (rat) (observation) [2]: well tolerated

CC1(C)CC(=O)N(c2ccc(C#Cc3cccc(F)c3)cn2)N1 [Example 1]
minimal effective dose (Body temperature test): 0.3 mg/kg
Shift (hum, 10 uM) (human mGlu5a receptor [1]): 1.75
Shift (rat, 10 uM) (mGlu5 receptor): 1.44
efficacy (human mGlu5a receptor [3]): low efficacy
HTD/LTD Dose (rat) [2]: 100 mg/kg
HTD/LTD Dose (rat) (observation) [2]: well tolerated

CC1(C)CN(c2ccc(C#Cc3cccc(F)c3)cn2)C(=O)O1 [Example 6]
minimal effective dose (Body temperature test): 0.3 mg/kg
Shift (hum, 10 uM) (human mGlu5a receptor [1]): 1.40
Shift (rat, 10 uM) (mGlu5 receptor): 1.90
HTD/LTD Dose (rat) [2]: 100 mg/kg
HTD/LTD Dose (rat) (observation) [2]: well tolerated

C(#Cc1cnc2nc(N3CCOCC3)nn2c1)c1ccccc1 [Example 16]
minimal effective dose (Body temperature test): 3 mg/kg
Shift (hum, 10 uM) (human mGlu5a receptor [1]): 12.13
Shift (rat, 10 uM) (mGlu5 receptor): 11.31
HTD/LTD Dose (rat) [2]: 10 mg/kg
HTD/LTD Dose (rat) (observation) [2]: seizures

CO[C@@H]1C(=O)N(c2ncc(C#Cc3cccc(F)c3)cn2)CC1(C)C [Example 10]
minimal effective dose (Body temperature test): 0.3 mg/kg
Shift (hum, 10 uM) (human mGlu5a receptor [1]): 3.46
Shift (rat, 10 uM) (mGlu5 receptor): 2.62
HTD/LTD Dose (rat) [2]: 100 mg/kg
HTD/LTD Dose (rat) (observation) [2]: well tolerated

CC1(C)CCN(c2ccc(C#Cc3ccccc3)cn2)C(=O)O1 [Example 15]
minimal effective dose (Body temperature test): 0.1 mg/kg
Shift (hum, 10 uM) (human mGlu5a receptor [1]): 9.73
Shift (rat, 10 uM) (mGlu5 receptor): 7.67
efficacy (human mGlu5a receptor [3]): high efficacy
HTD/LTD Dose (rat) [2]: 3 mg/kg
HTD/LTD Dose (rat) (observation) [2]: seizures

CN1C(=O)N(c2ccc(C#Cc3ccccc3)cn2)CC1(C)C [Example 14]
minimal effective dose (Body temperature test): 0.3 mg/kg
HTD/LTD Dose (rat) [2]: 3 mg/kg

CC1(C)CCN(c2ccc(C#Cc3cccc(Cl)c3)cn2)C(=O)C1 [Example 13]
minimal effective dose (Body temperature test): 0.1 mg/kg
Shift (hum, 10 uM) (human mGlu5a receptor [1]): 4.74
Shift (rat, 10 uM) (mGlu5 receptor): 3.92
HTD/LTD Dose (rat) [2]: 100 mg/kg
HTD/LTD Dose (rat) (observation) [2]: seizures

CN1C(=O)N(c2ccc(C#Cc3cccc(F)c3)cn2)[C@@H]2CCC[C@@H]21 [Example 3]
minimal effective dose (Body temperature test): 0.1 mg/kg
Shift (hum, 10 uM) (human mGlu5a receptor [1]): 0.87
Shift (rat, 10 uM) (mGlu5 receptor): 0.82
HTD/LTD Dose (rat) [2]: 100 mg/kg
HTD/LTD Dose (rat) (observation) [2]: well tolerated

CC1(C)CCN(c2ccc(C#Cc3ccccc3)cn2)C(=O)C1 [Example 17]
minimal effective dose (Body temperature test): 0.1 mg/kg
Shift (hum, 10 uM) (human mGlu5a receptor [1]): 15.95
Shift (rat, 10 uM) (mGlu5 receptor): 12.93
HTD/LTD Dose (rat) [2]: 100 mg/kg
HTD/LTD Dose (rat) (observation) [2]: seizures

CN1C(=O)N(c2ccc(C#Cc3ccccc3)nn2)[C@@H]2CCC[C@@H]21 [Example 4]
minimal effective dose (Body temperature test): 0.1 mg/kg
Shift (hum, 10 uM) (human mGlu5a receptor [1]): 2.46
Shift (rat, 10 uM) (mGlu5 receptor): 1.70
HTD/LTD Dose (rat) [2]: 100 mg/kg
HTD/LTD Dose (rat) (observation) [2]: well tolerated

CC1(C)CN(c2ccc(C#Cc3ccccc3)cn2)C(=O)O1 [Example 9]
minimal effective dose (Body temperature test): 1 mg/kg
Shift (hum, 10 uM) (human mGlu5a receptor [1]): 1.70
Shift (rat, 10 uM) (mGlu5 receptor): 2.63
HTD/LTD Dose (rat) [2]: 30 mg/kg
HTD/LTD Dose (rat) (observation) [2]: well tolerated
